According to publication PMC9729598 (Bioorganic Chemistry, 2022):

Tested on: SARS-CoV-2 (wuhan-HU-1 variant)
Format: cell-based

## C=C(C)[C@@H]1CC[C@]2(C(=O)O)CC[C@]3(C)[C@H](CC[C@@H]4[C@@]5(C)CC[C@H](O)C(C)(C)[C@@H]5CC[C@]43C)[C@@H]12 [BA, Betulinic acid]
  anti-SARS-CoV-2 activity: virtually inactive
